Assay results reported in patent publication US20200384135A1, “CANCER IMAGING WITH THERAPY: THERANOSTICS” (Virginia Commonwealth University, priority 2010, published 2020).

Tests used:
Format in all cases: in vivo, mice
[1] = tested on: breast cancer metastasis model, BCa-1; assay: Cross-comparison of PEG-Prom-mediated SPECT imaging and FDG-PET; details: BCa-1, PET acquired same day as SPECT
Method: FIGS. 7A-7D. Detection and localization of metastatic masses of melanoma after the systemic administration of pPEG-HSV1 tk by SPECT-CT imaging. Transverse, coronal and sagittal views of co-registered SPECT-CT images of Mel-2 (7A) and Mel-3 (7B, 7C and 7D) from FIG. 6C. All images were obtained at 24 h after [^125I]FIAU injection, which was 70 h after the IV administration of pPEG-HSV1 tk/PEI polyplex. Gross anatomical details of the metastatic masses that were located based on the SPECT-CT images in 7A, 7B, 7C and 7D. Multiple metastatic sites were detected by SPECT-CT imaging in Mel-2 (7A, dotted circle). […] (7B) Accumulated radioactivity was detected adjacent to the thoracic mid-spine toward the left side (white arrow), which corresponded to a tumor mass at this location. […] Melanoma was uncovered immediately above the diaphragm (f, white dotted circle) and in the left inguinal lymph node, correlating with 7C and 7D. Cross-comparison of the PEG-Prom-mediated imaging and FDG-PET in abreast cancer metastasis model, BCa-1. Two nodules (Tu-1 and -2) were detected by [^125I]FIAU-SPECT near the heart and were confirmed by necropsy. […] SPECT images were acquired 48 h post-injection of [^125I]FIAU, which was 94 h after the pPEG-HSV1 tk/PEI delivery. The PET images were acquired on the same day as the SPECT data. […]

PC3-ML-Luc metastases [2] = assay: FDG-PET/CT, intra-cardiac PC3-ML-Luc metastasis model; details: PCa-3, same mouse
Method: (§1) FIGS. 17A-E. AEG-Prom-based SPECT/CT imaging detects distant metastasis not identified by NaF- or FDG-PET/CT. The experimental metastases model, PCa-3 (n=5), was developed by intra-cardiac injection of 5×10^4 PC3-ML-Luc cells, SPECT/CT images for PCa-3 and a representative healthy control Ctrl-1 were obtained at 18-20 h after [^125I]FIAU injection, which was 66-68 h after IV administration of pAEG-HSV1tk-PEI polyplex. (17A, 17B) NaF-PET/CT, AEG-Prom SPECT/CT and FDG-PET imaging in Ctrl-1 (17A) and the PC3-ML-Luc model. PCa-3 (17B). (17D, 17E) Gross pathology of the metastatic nodules that were located on the basis of the SPECT/CT images. ([…]) Ex vivo BLI of the dissected organs, imaged within 20 min of euthanasia. […] A possible L1 lesion was detected by FDG/PET (17B). […]
(§2) Cloning of plasmid constructs. pPEG-Luc and pAEG-Luc were generated as described previously (3, 28). […] Luminescence was normalized for transfection efficiency by co-transfection with a vector expressing renilla luciferase, pGL4.74[hRluc/TK] […] After 48 h of transfection, the expression level of the Luc reporter was measured by the Dual Luciferase Reporter Assay kit (Promega). Luminescence was normalized for cell number (by μg total protein) using the BCA Protein Assay Kit (Pierce Biotechnology, Rockford, Ill.). […]

PC3-ML-Luc metastases [3] = assay: NaF-PET/CT, intra-cardiac PC3-ML-Luc metastasis model; details: PCa-3
Method: as §1, §2

Structure (SMILES) | Detection of nodule Tu-2 (smaller nodule attached to the heart) [1] | Detection of metastatic lesions by FDG-PET/CT (PC3-ML-Luc metastases [2]) | Detection of metastatic lesions by NaF-PET/CT (PC3-ML-Luc metastases [3])
OC[C@H]1OC(O)[C@H]([18F])[C@@H](O)[C@@H]1O (stereo partly drawn) [FDG, [^18F]fluorodeoxyglucose] | not obvious in the PET image | only able to identify a lesion in the left shoulder | –
[18F-].[Na+] [NaF, [^18F]NaF] | – | – | failed to identify the metastases within tibia and axial skeleton
